pKd: −log10 of the molar value. “Also recorded” adds a separate entry of the source. Each block holds one molecule with its values, some of them ahead of it.
How the values were obtained:
GHRH receptor (GHRH-R) = test: 125I-GHRHa binding assay in crude ovine pituitary membrane pellets; conditions: for displacement of photoprobe binding to membrane pellets: both photoprobes; for competition for the 125I-GHRHa binding site: 100 nM competitor
Procedure: Specific binding is defined as the difference in the binding seen with 20 pM iodinated analog alone and binding of the analog in the presence of 10 nM non-iodinated GHRHa.
All steps were performed at 4° C. Frozen ovine or bovine anterior pituitaries (ovine: approximately 1 gm/pituitary obtained from Dr. Iain Clarke, Melbourne, Australia; bovine: approximately 2.5 gm/pituitary special handling from Pel-Freez, of Rogers, Ak.) were washed of blood, cleaned of connective tissue and homogenized (using a Dounce homogenizer) in 50 mM HEPES buffer, 100 mM NaCl, 10 mM EDTA, 0.1 μM EGTA, pH 7.4 with 0.5 mM PMSF (phenyl methyl sulfonyl fluoride), 10 μg/ml leupeptin, 10 μg/ml pepstatin A, and 200 U/ml (units/ml) aprotinin. This buffer is used to remove endogenous GTP which might be bound to G proteins and to restore high affinity binding. The homogenate was spun at top speed in a microfuge and the supernatant discarded. The upper (membrane) layer of the pellet was then gently resuspended in binding buffer containing 50 mM Tris buffer, 5 mM EGTA, 5 mM MgCl2, 50 μg/ml alamethicin, 30 μg/ml bacitracin and other protease inhibitors as above.
1/50 pituitary equivalent per tube was incubated in binding buffer with approximately 100,000 counts of iodinated probe in a volume of 500 μl at room temperature for 1 hour. The total counts delivered and the percent of counts bound for each tube was determined with 3 to 6 replicates per experimental condition. Saturation binding profiles were analyzed with the computer program Ligand which performs a statistically weighted least squares fit to the exact ligand binding equation in nontransformed coordinates.

GHRH-R (55 kDa band) = test: photoaffinity cross-linking of the 55 kDa GHRH-R band, SDS-PAGE autoradiography; assay type: binding, ovine; conditions: 125I-GHRHa-ANB-NOS probe
Procedure: Photoprobe binding in ovine pituitary membrane pellets was determined by γ-counting and UV induced cross-linking was examined by autoradiagraphy of sodium dodecylsulfate polyacrylamide electrophoresis (SDS-PAGE) gels. ^125 I-GHRHa -ANB-NOS probe bound with an affinity of about one nanomole, nM (compared to about 160 picomole, pM, for GHRHa).
Photoprobe binding to membranes was evaluated with crude membrane binding assay and then analyzed further by SDS-PAGE electrophoresis to identify the binding sites. Photoprobes were incubated in the dark, photolysed for 10 minutes with a long wave (366 nm) UV lamp, and then the samples were pelleted. The pellets were counted and then extracted by boiling directly in SDS sample buffer (total SDS extracts). Alternatively, the labeled pellets were extracted in a mild detergent solution (5 mM CHAPS) centrifuged, and the chloroform/methanol concentrated supernatants denatured with SDS buffer (CHAPS extracts). These samples were then electrophoresed in SDS gels and autoradiographed.

[1] = molecular target: T1, secretin and VIP receptors (Homo sapiens, UniProt P47872); conditions: 10 μM; human pancreas; cited from earlier work
T1 construct: host or cells: human pancreas
T1 sequence (P47872 23-440): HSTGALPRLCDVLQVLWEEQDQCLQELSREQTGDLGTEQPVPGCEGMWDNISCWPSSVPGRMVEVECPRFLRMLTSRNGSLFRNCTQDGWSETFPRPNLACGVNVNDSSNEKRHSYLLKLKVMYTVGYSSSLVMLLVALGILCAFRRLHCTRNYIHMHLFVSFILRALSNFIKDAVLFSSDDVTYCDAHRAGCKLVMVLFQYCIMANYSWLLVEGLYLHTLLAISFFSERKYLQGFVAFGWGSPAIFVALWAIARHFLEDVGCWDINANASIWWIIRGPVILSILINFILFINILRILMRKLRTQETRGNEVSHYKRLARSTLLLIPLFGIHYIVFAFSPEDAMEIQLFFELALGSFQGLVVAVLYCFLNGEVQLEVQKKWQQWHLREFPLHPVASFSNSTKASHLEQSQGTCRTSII

Molecule: GHRH(1-29)-NH2
inhibition of 125I-secretin binding [1]: 20%

Molecule: pituitary adenylate cyclase activating peptide [PACAP]
competition for the 125I-GHRHa binding site (GHRH receptor (GHRH-R)): did not compete; also recorded: no competition

Molecule: vasoactive intestinal peptide [VIP]
inhibition of 125I-secretin binding [1]: 20% | competition for the 125I-GHRHa binding site (GHRH receptor (GHRH-R)): did not compete; also recorded: no competition | effect on the 55 kDa cross-linked band (GHRH-R (55 kDa band); 100 nM VIP): unaffected

Second part, led by results:

effect on specific binding in the GHRH assay (GHRH receptor (GHRH-R); preincubation with 1 mM DTT): completely eliminated
Molecule: O[C@H](CS)[C@H](O)CS (racemic) [DTT, dithiothreitol]

displacement of photoprobe binding to membrane pellets (GHRH receptor (GHRH-R); 50 μM GTPγS): partially displaced
Molecule: Nc1nc2c(ncn2[C@@H]2O[C@H](COP(=O)(O)OP(=O)(O)OP(O)(O)=S)[C@@H](O)[C@H]2O)c(=O)[nH]1 [GTPγS]
reduction of the 55 kDa cross-linked band (GHRH-R (55 kDa band); 50 μM GTPγS): over 50%

displacement of photoprobe binding to membrane pellets (GHRH receptor (GHRH-R); 10 nM GHRHa): totally displaced | pKd (GHRH receptor (GHRH-R); crude ovine pituitary membrane pellets, program Ligand, read-out: Kd, saturation binding to a single high affinity site): ~9.80
Molecule: [His^1, Nle^27 ]-GHRH-(1-32)-NH2 [GHRHa]
effect on the 55 kDa cross-linked band (GHRH-R (55 kDa band); 10 nM GHRHa): completely eliminated
